What was measured:
[1] = system: isolated giant neurons of mollusk Planorbarius Corneus; test: physiological functions in isolated giant neurons of mollusk; type: cell-based
Excerpt: Several double derivatives of glutamic acid {E-(CH2)n-E} or containing amino acids (glycine, lysine, histidine, and/or arginine, {E-amino acid-E}) including chelates (Fe2+, Mg2+, or Zn2+) were synthesized and used to study their physiological functions in isolated giant neurons of mollusk Planorbarius Corneus. […] The effect of these substances depended on the length of the amino acid chain (CH2)n between the residues of glutamic acid.
The Hill coefficient (nH) is a central parameter in the study of ligand-protein interactions, which measures the degree of co-operativity between subunits that bind the ligand in multi-subunit proteins. The most common usage of nH is as an estimate of the minimal number of interacting binding sites in positively co-operating systems. The Hill coefficient for tested compounds was about 0.75.

[2] = system: patients who had suffered an acute ischemic stroke; conditions: sublingual 2.0 g/day, five consecutive days, acute ischemic stroke within six hours

**Q.** Which “neuronal response evoked by application” value ([1]; isolated giant neurons, application/injection of substance) does the source give for N[C@@H](CCC(=O)O)C(=O)O [glutamate] here?
**A.** biphasic responses

**Q.** For NCC(=O)O [glycine], which “decrease of 30 day mortality compared to placebo” value [2] is on record?
**A.** 20%

**Q.** Which “effect on neurons depending on chain length between glutamic acid residues” value ([1]; comparison among double derivatives) does the source give for “glutamic acid-lysine Zn2+-arginin-glutamic acid” here?
**A.** maximal effect

Reference: patent US8569448B2, “NMDAR biomarkers for diagnosis and treatment of traumatic brain injury and other disorders” (Grace Laboratories, LLC, priority 2006, dated 2013)
